Key:
Experiment in all cases: Growth inhibition GI50 in vitro (CCK8/MTT, 72 h)
Format in all cases: cell-based, human
[1] = tested on: AU565 (Her2 amp); conditions: Homo sapiens, AU565; HER2 positive cell line; range of GI50; read-out: GI50 AU-565
[2] = tested on: N87 (HER2 Amp); conditions: Homo sapiens; HER2 positive cell line; range of GI50; read-out: GI50 N87
[3] = tested on: A431 (EGFR WT, amplification and high expression); conditions: Homo sapiens, A-431; EGFR wild type cell line; range of GI50; read-out: GI50 A431
[4] = tested on: A549 (EGFR WT); conditions: Homo sapiens, A549; EGFR wild type cell line; range of GI50; read-out: GI50 A549
[5] = tested on: H1299 (EGFR wt, Nras Q61K); conditions: Homo sapiens, NCI-H1299; EGFR wild type cell line; range of GI50; read-out: GI50 H1299
[6] = tested on: H460 (EGFR wt, Kras G61H); conditions: Homo sapiens, NCI-H460; EGFR wild type cell line; range of GI50; read-out: GI50 H460
[7] = tested on: H1975 (EGFR L858R/T790M); conditions: Homo sapiens, NCI-H1975; EGFR mutant cell line; range of GI50; read-out: GI50 H1975
[8] = tested on: HCC827 (EGFR dE746-A750); conditions: Homo sapiens, HCC827; EGFR mutant cell line; range of GI50; read-out: GI50 HCC827
[9] = tested on: PC-9 (EGFR dE746-A750); conditions: Homo sapiens; EGFR mutant cell line; range of GI50; read-out: GI50 PC-9
[10] = tested on: PC-9ER (EGFR delE746-A750/T790M); conditions: Homo sapiens, PC-9/ER; EGFR mutant cell line; range of GI50; read-out: GI50 PC9ER
[11] = tested on: SK-BR-3 (Her2 amp); conditions: Homo sapiens, SK-BR-3; HER2 positive cell line; range of GI50; read-out: GI50 SK-BR-3

Compound | GI50 [3] [nM] | GI50 [4] [nM] | GI50 [5] [nM] | GI50 [6] [nM] | GI50 [7] [nM] | GI50 [8] [nM] | GI50 [9] [nM] | GI50 [10] [nM] | GI50 [11] [nM] | GI50 [1] [nM] | GI50 [2] [nM]
C=CC(=O)Nc1cc(Nc2cc(-c3cn(C)c4ccccc34)ncn2)c(OC)cc1N1CCN(CCN2CCCC2)CC1 [Compound 165, N-(4-methoxyl-5-(6-(1-methyl-1H-indol-3-yl)-pyrimidin-4-ylamino)-2-(4-(2-(pyrrolidin-1-yl)-ethyl)-piperazin-1-yl)-phenyl)-acrylamide] | 10 to 100 | > 1000 | > 1000 | > 1000 | 100 to 1000 | 10 to 100 | < 10 | 10 to 100 | 100 to 1000 | 100 to 1000 | 100 to 1000
C=CC(=O)Nc1cc(Nc2cc(-c3cn(C)c4ccccc34)ncn2)c(OC)cc1N(C)CCN1CCCC1 [Compound 178, N-(4-methoxyl-5-(6-(1-methyl-1H-indol-3-yl)-pyrimidin-4-ylamino)-2-(methyl-(2-pyrrolidin-1-yl-ethyl)-amino)-phenyl)-acrylamide] | 100 to 1000 | > 1000 | > 1000 | > 1000 | 10 to 100 | < 10 | < 10 | 10 to 100 | 100 to 1000 | 100 to 1000 | 10 to 100
C=CC(=O)Nc1cc(Nc2cc(-c3cn(CC)c4ccccc34)ncn2)c(OC)cc1N(C)CCN(C)C [Compound 181, N-{2-((2-dimethylamino-ethyl)-methylamino)-5-[6-(1-ethyl-1H-indol-3-yl)-pyrimidin-4-ylamino]-4-methoxyl-phenyl}-acrylamide] | 100 to 1000 | > 1000 | > 1000 | > 1000 | 10 to 100 | < 10 | < 10 | < 10 | 10 to 100 | 10 to 100 | 10 to 100
C=CC(=O)Nc1cc(Nc2cc(-c3cn(CCC)c4ccccc34)ncn2)c(OC)cc1N(C)CCN(C)C [Compound 182] | 100 to 1000 | > 1000 | > 1000 | > 1000 | 10 to 100 | 10 to 100 | 10 to 100 | 10 to 100 | 10 to 100 | 10 to 100 | 100 to 1000
C=CC(=O)Nc1cc(Nc2cc(-c3cn(C)c4cc(F)ccc34)ncn2)c(OC)cc1N(C)CCN(C)C [Compound 186, N-(4-methoxyl-5-(6-(6-fluoro-1-methyl-1H-indol-3-yl)-pyrimidin-4-ylamino)-2-(2-(dimethylamino-ethyl)-methyl-amino)-phenyl)-acrylamide] | 100 to 1000 | > 1000 | > 1000 | > 1000 | 10 to 100 | 10 to 100 | 10 to 100 | 10 to 100 | 10 to 100 | 10 to 100 | 10 to 100
C=CC(=O)Nc1cc(Nc2cc(-c3cn(C)c4ccc(F)cc34)ncn2)c(OC)cc1N(C)CCN(C)C [Compound 188, N-(2-((2-dimethylamino-ethyl)-methylamino)-5-(6-(5-fluoro-1-methyl-1H-indol-3-yl)-pyrimidin-4-ylamino)-4-methoxyl-phenyl)-acrylamide] | 100 to 1000 | > 1000 | > 1000 | > 1000 | 10 to 100 | < 10 | < 10 | < 10 | < 10 | 10 to 100 | 10 to 100
C=CC(=O)Nc1cc(Nc2cc(-c3cn(C4CCCC4)c4ccc(F)cc34)ncn2)c(OC)cc1N(C)CCN(C)C [Compound 193, N-(5-(6-(5-fluoro-1-cyclopentyl-1H-indol-3-yl)-pyrimidin-4-ylamino)-4-methoxyl-2-((2-dimethylamino-ethyl)-methyl-amino)-phenyl)-acrylamide] | > 1000 | > 1000 | > 1000 | > 1000 | 10 to 100 | < 10 | < 10 | 10 to 100 | > 1000 | 100 to 1000 | 100 to 1000

More lines, main results first:

GI50 [3] [nM] | GI50 [4] [nM] | GI50 [5] [nM] | GI50 [6] [nM] | GI50 [7] [nM] | GI50 [8] [nM] | GI50 [9] [nM] | GI50 [10] [nM] | GI50 [11] [nM] | Compound | GI50 [1] [nM] | GI50 [2] [nM]
10 to 100 | > 1000 | > 1000 | > 1000 | 10 to 100 | < 10 | < 10 | < 10 | 10 to 100 | C=CC(=O)Nc1cc(Nc2cc(Nc3ccc(F)c(Cl)c3)ncn2)c(OC)cc1N1CCN(C)CC1 [Compound 145, N-(5-(6-(3-chloro-4-fluoro-phenylamino)-pyrimidin-4-ylamino)-4-methoxyl-2-(4-methyl-piperazin-1-yl)-phenyl)-acrylamide] | 10 to 100 | < 10
10 to 100 | > 1000 | > 1000 | > 1000 | < 10 | < 10 | < 10 | < 10 | < 10 | C=CC(=O)Nc1cc(Nc2cc(Nc3ccc(F)c(Cl)c3)ncn2)c(OC)cc1OCCN(C)C [Compound 148, N-(5-(6-(3-chloro-4-fluoro-phenylamino)-pyrimidin-4-ylamino)-2-(2-dimethylamino-ethoxyl)-4-methoxyl-phenyl)-acrylamide] | < 10 | 10 to 100
10 to 100 | > 1000 | > 1000 | > 1000 | < 10 | < 10 | < 10 | < 10 | < 10 | C=CC(=O)Nc1cc(Nc2cc(Nc3ccc(F)c(Cl)c3)ncn2)c(OC)cc1OCCN1CCN(C)CC1 [Compound 150, N-(5-(6-(3-chloro-4-fluoro-phenylamino)-pyrimidin-4-ylamino)-2-(2-(4-methyl-piperazin-lyl)-ethoxyl)-4-methoxyl-phenyl)-acrylamide] | 10 to 100 | 10 to 100
